Assay results from paper PMC7176418 (Science Advances, 2020).
pKd: −log10 of the molar value.

Legend:
Assay in all cases: biolayer interferometry
Type in all cases: binding
Slug (Snail2) = biological target: T1, Slug (Snail2) (Homo sapiens, UniProt O43623)
T1 sequence (O43623 1-268): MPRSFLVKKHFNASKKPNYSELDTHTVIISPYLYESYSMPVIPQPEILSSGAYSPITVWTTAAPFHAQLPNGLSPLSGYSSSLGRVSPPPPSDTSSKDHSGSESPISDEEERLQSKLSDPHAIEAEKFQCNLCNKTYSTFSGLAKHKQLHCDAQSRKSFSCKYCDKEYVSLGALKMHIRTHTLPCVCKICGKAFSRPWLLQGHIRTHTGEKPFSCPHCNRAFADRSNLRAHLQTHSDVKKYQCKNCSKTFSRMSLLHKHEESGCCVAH

Snail [1] = biological target: Snail (Homo sapiens, UniProt O95863, R174A)
Snail [2] = biological target: Snail (Homo sapiens, UniProt O95863)
Snail (Homo sapiens, UniProt O95863), sequence (O95863 whole entry): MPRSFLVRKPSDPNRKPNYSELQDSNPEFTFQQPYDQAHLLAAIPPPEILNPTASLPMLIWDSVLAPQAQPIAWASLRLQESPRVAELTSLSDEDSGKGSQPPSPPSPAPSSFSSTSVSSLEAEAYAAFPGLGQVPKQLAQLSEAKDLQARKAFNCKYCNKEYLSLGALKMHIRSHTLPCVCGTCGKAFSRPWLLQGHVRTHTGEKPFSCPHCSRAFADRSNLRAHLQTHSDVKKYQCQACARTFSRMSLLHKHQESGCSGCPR

Snail (Homo sapiens, UniProt O95863, R174A), sequence (O95863 whole entry R174A): as the sequence (O95863 whole entry) above, with R174A counted along it

Structure (SMILES): Cc1cc(Nc2nc(SCc3ccc(C(=O)Nc4ccc(F)cc4N)cc3)nn3cccc23)n[nH]1 [CYD19]
- pKd (Slug (Snail2)): 6.22
- pKd (Snail [1]): 5.52
- pKd (Snail [2]): 6.74
